Structures can show the parent of a compound that is named as a salt. Square brackets hold non-standard residues; d marks the D form. Peptide text beside a SMILES is read from it. * marks the point of attachment. Propyl(2R-PamO,3-PamO) = CCCCCCCCCCCCCCCC(=O)OC[C@H](C*)OC(=O)CCCCCCCCCCCCCCC
How the values were obtained:
[1] = test system: bone marrow cells of BALB/c mice; assay: Enhancing proliferation of bone marrow cells of mice (MTT reduction method); type: cell-based; conditions: concentration giving 1.3 or more times the proliferation of the group without test compound; 37°C, 3 days
Protocol: Actions of compound (I) produced in the foregoing Examples on enhancing proliferation of bone marrow cells of mice are shown in Table 2.
To a RPMI 1640 culture medium [Bio-Wittaker Inc. (hereinafter abbreviated as BW), U.S.A.] containing 2 x 10⁶/ml of bone marrow cells of BALB/c mice, 2 mM of L-glutamine, 20 µg/ml of gentamicin (Flow Laboratories, Inc., Scotland), 10% fetal calf serum (BW, U.S.A.) was added a test compound in an adequate concentration, which was incubated at 37°C for 3 days in 5% carbon dioxide in air followed by determination of proliferation of the bone marrow cells by the MTT reduction method [Tada et al., Journal of Immunological Methods, Vol. 93, p.157, 1986].

leukocytes = assay: Enhancing the number of leukocytes in cyclophosphamide-treated mice; type: in vivo, CDF1/Crj mice; conditions: percentage relative to mice without cyclophosphamide (100%)
Protocol: Six weeks old female CDF1/Crj mice (5 animals per group) were subjected to the experiment. Each animal was orally administered with cyclophosphamide dissolved in physiological saline solution at a dose of 150 mg/kg. From the next day, each animal was administered subcutaneously with the compound suspended in 5% glucose at the following dosage for five days once a day. On the next day after completion of the administration, about 100 µl of peripheral blood was collected from orbital vein using an EDTA-treated glass capillary. Then, the number of leukocytes was counted using an automatic cell analyzer (Sysmex K-2000, Toa Medical Electronics, Japan).

[2] = test system: Non adherent bone marrow cells of BALB/c mice; assay: Enhancing development of AchE positive cells (fluorescence method); type: cell-based; conditions: 10 ng/ml; 37°C, 5 days; AchE activity in the group without compound is shown as 1
Excerpt: Action of compound (I) on enhancing development of acetylcholine esterase (hereinafter abbreviated as AchE) positive cells are shown in Table 4.
The AchE activity was studied according to a fluorescence method (Ishibashi et al., Proceedings of the National Academy of Science U.S.A., Vol. 86, pp. 5953 to 5957, 1989).
Non adherent bone marrow cells of BALB/c mice (1 x 10⁶ cells/ml) were suspended in Iscove's modification of Dulbecco's medium (Gibco BRL Inc., U.S.A.) containing 1% Neutridoma-SP (Boheringer Mannhaim, Germany). Twenty-five µl of a test compound solution in an adequate concentration was inoculated in a 96-well plate. To each of these solutions in the well was added 100 µl of the non adherent bone marrow cells suspension. After incubation at 37°C for 5 days, 25 µl of 6% glutaraldehyde aqueous solution was added to the well. After standing at 4°C for 30 minutes the mixture was centrifuged (850 x g) at 5°C for 5 minutes and the supernatant was removed. […] To this was added 10 µl of 0.4 mM 7-diethylamino-3-(4'-maleimidylphenyl)-4-methylcoumarin aqueous solution and 100 µl of buffer (pH 5.0) containing 0.2% POPE, 1 mM EDTA and 50 mM sodium acetate and fluorescence emission was determined on a fluorometer (excitation wave length: 365 nm, fluorescence wave length: 450 nm).

mice = assay: Toxicity test, intravenous administration; type: in vivo; conditions: intravenous administration at 125 mg/kg
Protocol: Intravenous administration of trisodium salt of compound 1 at 125 mg/kg caused no death in mice.

With CCCCCCCCCCCCCCCC(=O)OC[C@H](CSC[C@H](NC(=O)CN)C(=O)N[C@@H](CCC(=O)O)C(=O)NCC(=O)N[C@H](CCC(=O)O)C(=O)O)OC(=O)CCCCCCCCCCCCCCC [Compound 1, (2R,6R)-2-(H-Gly-amino)-6,7-bis(PamO)-4-THT-Glu-Gly-D-Glu-OH] (H-GC(Propyl(2R-PamO,3-PamO))EG[dE]-OH) the “Minimal Effective Concentration (MEC, ng/ml)” value [1] was 6.25 ng/mL, the Number of leukocytes (leukocytes; 0.50 mg/kg/day subcutaneously for 5 days after oral cyclophosphamide 150 mg/kg) was 137% and the “Degree of AchE Positive Cell” value [2] was 1.92.
Work on CCCCCCCCCCCCCCCC(=O)OC[C@H](CSC[C@H](NC(=O)CNC(=O)[C@@H](N)CCC(=O)O)C(=O)N[C@@H](CCC(=O)O)C(=O)NCC(=O)N[C@H](CCC(=O)O)C(=O)O)OC(=O)CCCCCCCCCCCCCCC [Compound 4, (2R,6R)-2-(H-Glu-Gly-amino)-6,7-bis(PamO)-4-THT-Glu-Gly-D-Glu-OH] (H-EGC(Propyl(2R-PamO,3-PamO))EG[dE]-OH) yielded a Number of leukocytes (leukocytes; 0.13 mg/kg/day subcutaneously for 5 days after oral cyclophosphamide 150 mg/kg) of 108%.
CCCCCCCCCCCCCCCC(=O)OC[C@H](CSC[C@H](NC(=O)[C@@H](N)Cc1ccc(O)cc1)C(=O)N[C@@H](CCC(=O)O)C(=O)NCC(=O)N[C@H](CCC(=O)O)C(=O)O)OC(=O)CCCCCCCCCCCCCCC [Compound 5, (2R,6R)-2-(H-Tyr-amino)-6,7-bis(PamO)-4-THT-Glu-Gly-D-Glu-OH] (H-YC(Propyl(2R-PamO,3-PamO))EG[dE]-OH) was tested, and the “Minimal Effective Concentration (MEC, ng/ml)” value [1] was 6.25 ng/mL.
In the case of CCCCCCCCCCCCCCCC(=O)OC[C@H](CSC[C@H](NC(=O)CN)C(=O)N[C@@H](CCC(=O)O)C(=O)NCC(=O)N[C@H](CCC(=O)O)C(=O)O)OC(=O)CCCCCCCCCCCCCCC [trisodium salt of compound 1] (H-GC(Propyl(2R-PamO,3-PamO))EG[dE]-OH), the death (mice) is reported as “no death”.
